Test results: paper PMC6968685 (Journal of Enzyme Inhibition and Medicinal Chemistry, 2020)

Columns and labels:
[1] = system: F21T (DNA, G4) GGGTTAGGGTTAGGGTTAGGG; experiment: FRET melting; conditions: 10 mM K+, 90 mM Li+; 10 mM lithium cacodylate pH 7.2; 2 µM compound, 0.2 µM oligonucleotide
[2] = system: FPf1T (DNA, G4) GGGTTTAGGGTTTAGGGTTTAGGG; experiment: FRET melting; conditions: 10 mM K+, 90 mM Li+; 10 mM lithium cacodylate pH 7.2; 2 µM compound, 0.2 µM oligonucleotide
[3] = system: FPf8T (DNA, G4) GGGTTCAGGGTTCAGGGTTCAGGG; experiment: FRET melting; conditions: 10 mM K+, 90 mM Li+; 10 mM lithium cacodylate pH 7.2; 2 µM compound, 0.2 µM oligonucleotide
[4] = system: FtrypBT (FEBR1T; FtryBT) (DNA, G4) GGGCAGGGGGTGATGGGGAGGAGCCAGGG; experiment: FRET melting; conditions: 10 mM K+, 90 mM Li+; 10 mM lithium cacodylate pH 7.2; 2 µM compound, 0.2 µM oligonucleotide
[5] = system: FdxT (DNA, duplex, hexaethylene glycol linker between nucleotides 10 and 11) TATAGCTATATATAGCTATA; experiment: FRET melting; conditions: 10 mM K+, 90 mM Li+; 10 mM lithium cacodylate pH 7.2; 2 µM compound, 0.2 µM oligonucleotide
[6] = system: P. falciparum CQ-resistant strain W2; experiment: In vitro antiplasmodial activity, SYBR Green I fluorescence-based method, strain W2; format: cell-based; conditions: Plasmodium falciparum; chloroquine-resistant strain W2; 48 h incubation; read-out: P. falciparum strains IC50 values, W2
Method in brief: (§1)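 P. falciparum 3D7 and W2 cultured in human erythrocytes in RPMI with 0.5% Albumax I at 37 °C, exposed 48 h to compounds tested […]. Parasite DNA read by SYBR Green I fluorescence (ex 485/em 535 nm); IC50 by non-linear regression, mean of three independent experiments.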

[7] = system: P. falciparum CQ-sensitive strain 3D7; experiment: In vitro antiplasmodial activity, SYBR Green I fluorescence-based method, strain 3D7; format: cell-based; conditions: Plasmodium falciparum; chloroquine-sensitive strain 3D7; 48 h incubation; read-out: P. falciparum strains IC50 values, 3D7
Method in brief: as §1

[8] = system: L. donovani (MHOM/IN/00/DEVI) promastigotes; experiment: In vitro antileishmanial activity, MTT assay on promastigotes; format: cell-based; conditions: Leishmania donovani, 72 h incubation, ≥10 = no activity noted at the highest concentration tested
Method in brief: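 Log-phase L. donovani MHOM/IN/00/DEVI promastigotes (10^6/ml, Schneider's + 20% FCS) were exposed to graded compound concentrations (DMSO <0.5% v/v) for 72 h at 27 °C, in duplicate. Growth measured by MTT reduction (4 h, A570 nm); IC50 obtained by regression.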

[9] = system: T. brucei brucei AnTat 1.9; experiment: In vitro antitrypanosomal activity, Alamar Blue assay; format: cell-based; conditions: Trypanosoma brucei; slender bloodstream trypomastigotes, AnTat 1.9 strain; read-out: Trypanosoma brucei brucei IC50 values, Trypanos Antat 1.9
Method in brief: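 Viability read-out: resazurin (Alamar Blue) fluorescence, 530 nm excitation/590 nm emission, after 5 h dye exposure following 69 h compound incubation at 37 °C, 5% CO2, 2000 parasites per well, doses in duplicate. IC50 values fitted nonlinearly, three independent runs.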

[10] = Cytotoxicity evaluation, MTT; format: cell-based, human; conditions: human
Method in brief: (§2)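 HepG2 hepatocarcinoma cells exposed to compound in duplicate, then viability measured by MTT reduction (0.5 mg/ml), formazan dissolved in DMSO and read at 570 nm against 630 nm. Viability expressed as percent of untreated cells; CC50 taken from dose-response curve, doxorubicin as positive control.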

[11] = system: Plasmodium telomeric sequence FPf1T G-quadruplex; experiment: FRET melting experiments, FPf1T; format: binding, P. falciparum; conditions: 2 μM compound, 0.2 μM oligonucleotide, K+ conditions
Method: (§3) These were performed with dual-labelled oligonucleotides mimicking the Plasmodium telomeric sequences FPf1T [FAM-5′(GGGTTTA)3-GGG3′-TAMRA] and FPf8T [FAM-5′ (GGGTTCA)3GGG3′-TAMRA], the Trypanosoma 9 and 11 chromosomic sequence FTrypBT (also named FEBR1T) [FAM-5′[…]3′-TAMRA], the human telomeric sequence F21T [FAM-(GGGTTA)3-GGG3′-TAMRA], and the human duplex sequence FdxT [FAM5′-[…]-hexaethyleneglycol-[…]3′-TAMRA][51]^,[52]. The oligonucleotides were pre-folded in 10 mM lithium cacodylate buffer (pH 7.2), with 10 mM KCl and 90 mM LiCl (K^+condition). The FAM emissions were recorded at 516 nm using a 492-nm excitation wavelength in the absence and presence of a single compound as a function of temperature (25–95 °C) in 96-well microplates by using a Stratagene MX3000P real-time PCR device at a rate of 1 °C·min^−1. Data were normalised between 0 and 1, and the required temperature for half-denaturation of oligonucleotides corresponding to the emission value of 0.5 was taken as the Tm. […] For each compound, three independent experiments were carried out.

[12] = system: Plasmodium telomeric sequence FPf8T G-quadruplex; experiment: FRET melting experiments, FPf8T; format: binding, P. falciparum; conditions: 2 μM compound, 0.2 μM oligonucleotide, K+ conditions
Method: as §3

[13] = system: Trypanosoma 9 and 11 chromosomic sequence FTrypBT (FEBR1T) G-quadruplex; experiment: FRET melting experiments, FtrypBT; format: binding, T. brucei brucei; conditions: 2 μM compound, 0.2 μM oligonucleotide, K+ conditions
Method: as §3

[14] = system: human telomeric sequence F21T G-quadruplex; experiment: FRET melting experiments, F21T; format: binding; conditions: 2 μM compound, 0.2 μM oligonucleotide, K+ conditions
Method: as §3

[15] = system: human duplex sequence FdxT; experiment: FRET melting experiments, FdxT duplex control; format: binding; conditions: 2 μM compound, 0.2 μM oligonucleotide, K+ conditions
Method: as §3

human HepG2 cells = experiment: Cytotoxicity evaluation, MTT; format: cell-based; conditions: HepG2 cells; 72 h
Method in brief: as §2

SMILES	ΔTm [1] [°C]	ΔTm [2] [°C]	ΔTm [3] [°C]	ΔTm [4] [°C]	ΔTm [5] [°C]	IC50 [6] [µM]	IC50 [7] [µM]	IC50 [8] [µM]	IC50 [9] [µM]	CC50 at 72 h [10] [µM]	ΔTm FPf1T [11] [°C]	ΔTm FPf8T [12] [°C]	ΔTm FtrypBT [13] [°C]	ΔTm F21T [14] [°C]	ΔTm FdxT [15] [°C]	CC50 (human HepG2 cells) [µM]
COc1ccc2c(-c3ccc(CNCCCCN(C)C)cc3)nc(-c3ccc(CNCCCCN(C)C)cc3)cc2c1	23.2 ± 0.6	–	–	–	–	–	–	–	–	–	–	–	–	–	–	–
COc1ccc2cc(-c3ccc(CNCCCCN(C)C)cc3)nc(-c3ccc(CNCCCCN(C)C)cc3)c2c1	22.2 ± 0.1	27.3 ± 1.1	26.6 ± 0.2	24.0 ± 0.3	4.1 ± 0.3	–	–	–	–	–	–	–	–	–	–	–
COc1ccc2nc(-c3ccc(CNCCCCN(C)C)cc3)nc(-c3ccc(CNCCCCN(C)C)cc3)c2c1	–	19.8 ± 0.6	–	–	–	–	–	–	–	–	–	–	–	–	–	–
c1cc(CNCCN2CCOCC2)cc(-c2nc(-c3cccc(CNCCN4CCOCC4)c3)c3ccccc3n2)c1	0.1 ± 0.1	0.5 ± 0.3	0.5 ± 0.4	0.6 ± 0.1	–	–	–	–	–	–	–	–	–	–	–	–
COc1ccc2c(-c3ccc(CNCCCCN(C)C)cc3)nc(-c3ccc(CNCCCCN(C)C)cc3)cc2c1 [Compound 2i, 6-Methoxy-1,3-bis{4-[(4-dimethylaminobutyl)aminomethyl]phenyl}isoquinoline]	–	–	–	–	–	2.4 ± 0.49	8.46 ± 0.66	≥ 10	0.64 ± 0.323	10.8 ± 0.8	12.8 ± 1.3	12.9 ± 1.0	8.4 ± 0.3	23.2 ± 0.6	0.9 ± 0.1	–
COc1ccc2c(-c3ccc(CNCCCN(C)C)cc3)nc(-c3ccc(CNCCCN(C)C)cc3)cc2c1 [Compound 2j, 6-Methoxy-1,3-bis{4-[(3-dimethylaminopropyl)aminomethyl]phenyl}isoquinoline]	–	–	–	–	–	5.09 ± 0.76	7.21 ± 0.59	≥ 10	0.59 ± 0.131	2.16 ± 0.2	15.3 ± 0.7	15.0 ± 0.6	12.2 ± 1.1	13.9 ± 0.1	0.5 ± 0.3	–
COc1ccc2nc(-c3ccc(CNCCCCN(C)C)cc3)nc(-c3ccc(CNCCCCN(C)C)cc3)c2c1 [Compound 3h, 6-Methoxy-2,4-bis{4-[(4-dimethylaminobutyl)aminomethyl]phenyl}quinazoline]	–	–	–	–	–	3.68 ± 0.5	3.84 ± 0.38	≥ 10	0.27 ± 0.035	11.7 ± 1.2	19.8 ± 0.6	18.8 ± 0.7	15.7 ± 0.3	16.4 ± 1.3	2.0 ± 0.2	–
COc1ccc2nc(-c3ccc(CNCCCN(C)C)cc3)nc(-c3ccc(CNCCCN(C)C)cc3)c2c1 [Compound 3i, 6-Methoxy-2,4-bis{4-[(3-dimethylaminopropyl)aminomethyl]phenyl}quinazoline]	–	–	–	–	–	4.34 ± 0.74	4.05 ± 0.95	≥ 10	0.44 ± 0.084	1.93 ± 0.1	16.0 ± 0.3	15.6 ± 0.3	12.7 ± 0.7	12.6 ± 0.0	0.3 ± 0.3	–
COc1ccc2nc(-c3ccc(CNCCN(C)C)cc3)nc(-c3ccc(CNCCN(C)C)cc3)c2c1 [Compound 3j, 6-Methoxy-2,4-bis{4-[(2-dimethylaminoethyl)aminomethyl]phenyl}quinazoline]	–	–	–	–	–	1.23 ± 0.15	0.56 ± 0.02	≥ 10	1.04 ± 0.085	3.12 ± 0.2	3.4 ± 0.4	3.1 ± 0.4	4.4 ± 0.5	7.2 ± 0.4	−0.4 ± 0.2	–
COc1ccc2c(-c3ccc(CNCCCCN(C)C)cc3)nc(-c3ccc(CNCCCCN(C)C)cc3)nc2c1 [Compound 3m, 7-Methoxy-2,4-bis{4-[(4-dimethylaminobutyl)aminomethyl]phenyl}quinazoline]	–	–	–	–	–	4.22 ± 0.55	1.18 ± 0.43	≥ 10	0.75 ± 0.06	25.1 ± 1.2	18.3 ± 0.7	17.8 ± 0.5	13.8 ± 0.5	19.4 ± 0.4	1.7 ± 0.3	–
N=C(N)c1ccc(OCCCCCOc2ccc(C(=N)N)cc2)cc1 [Pentamidine, reference compound]	–	–	–	–	–	–	–	5.5 ± 0.8	0.0002 ± 6e-05	–	–	–	–	–	–	2.3 ± 0.5
